# Test results reported in US20040167459A1, “Methods and systems for controlling and/or increasing iontophoretic flux” (priority 2003, published 2004).
# Like-named read-outs stand apart in the source and are kept apart here.
# Experiments:
# [1] = HEM; for Transference number: 0.5 mA DC
# Protocol: (§1) FIG. 1 schematically depicts the setup employed to carry out human epidermal membrane (HEM) iontophoretic experiments described below. Scleral experiments were conducted using a simple side-by-side diffusion apparatus known to one of ordinary skill in the art. Conductive silver paint was purchased from Ladd Research Technologies (Williston, Vt.) and silver foil from EM-Science (Gibbstown, N.J.). Silver chloride powder, phosphate buffered saline (PBS, pH 7.4) tablets were purchased from Sigma (St. Louis, Mo.). ^14C-sodium salicylate was purchased from ARC (St. Louis, Mo.) and non-radiolabeled sodium salicylate from Sigma. Ultimate Gold® scintillation cocktail was purchased from Packard (Meriden, Conn.) and liquid scintillation counting was performed by a Packard TriCarb Model 1900 TR liquid scintillation analyzer. A custom built AC waveform generator power supply (EM-Tech Electronics, Lindon Utah) was used as the permeabilzation power supply for skin studies. The DC driving force for the skin studies was a 9 V battery (Duracell) combined with a fixed resistor. For scleral studies, there was no permeabilization source needed and all iontophoresis was conducted using a Phoresor PM-800 (Iomed, Inc., Salt Lake City, Utah). Human epidermal membrane was obtained from licensed sources and experiments were conducted under local IRB approval. Scleral tissue was obtained from freshly euthanized rabbit cadavers under local IACUC approval. All water was >18 MΩ prepared by the Milli-Q process. Ionac® MA-3475 (Sybron Chemical, Inc., Birmingham, N.J.) was pre-loaded with sodium salicylate by vigorously stirring the membranes in a 0.15 M sodium salicylate solution spiked with the radiolabel. Loading was considered complete when the DPM counts in the loading solution varied by less than 10% over a 12 hour period. The MA-3475 membranes were assembled in a group of five membranes and placed in the diffusion cell setup.
# Permeabilized skin transport experiments were conducted using a side-by-side type diffusion cell with an open diffusional area of 0.85 Cm^2. The cells were separated by a piece of dermatomed, heat-separated human epidermal membrane with the stratum corneum facing the donor compartment.
# The DC iontophoresis driving electrodes were prepared by dipping a silver foil strip into a 1:1 (w/w) mixture of conductive silver paint and finely ground silver chloride. After dipping, the electrodes were hung and allowed to cure at room temperature overnight. The AC permeabilizing electrodes were made by mechanically drilling holes into a piece of silver foil and electro-coating the perforated silver foil with AgCl by submersion in a saturated KCl solution and passing a 1 mA current for 10 minutes.
# (§2) The receiver compartment was filled with 0.15 M PBS. In each experiment, the donor compartment contained 0.15 M sodium salicylate in water spiked with 25 nCi/ml ^14C-sodium salicylate.
# A 1000 Hz AC potential was applied to decrease and maintain the skin resistance to 2 and 0.5 kΩ and a 9 V battery was connected to a fixed resistor in series to yield a direct current of 0.5 mA. Every 30 minutes, the entire volume of the receiver solution was removed, mixed with scintillation cocktail, and analyzed by liquid scintillation counting. All experiments were conducted at least in duplicate.
# The amount of ^14C-salicylate transported across the membrane was plotted as a function of time. Permeabilities were determined from the following equations: [formula]
# where J is the flux, Q is the amount of solute transported across the membrane, A is the area of the exposed membrane, t is time, P is the permeability, and CD is the concentration of the solute in the donor solution.
# Permeabilities were plotted as a function of time and the slope of the best-fit line to the steady state portion of the curve was determined using regression analysis.
# [2] = rabbit sclera
# Protocol: as §1
# Scleral transport experiments were conducted using a side-by-side type diffusion cell with an open diffusional area of 0.2 cm^2. The cells were separated by a piece of excised scleral tissue from adult rabbits. The diffusion cells were assembled with the conjunctival side facing the donor compartment.
# The DC iontophoresis driving electrodes were prepared by dipping a silver foil strip into a 1:1 (w/w) mixture of conductive silver paint and finely ground silver chloride. After dipping, the electrodes were hung and allowed to cure at room temperature overnight.
# as §2
# Direct current DC was applied at currents of 0.5, 1, and 2 mA with a Phoresor. Every 30 minutes, the entire volume of the receiver solution was removed, mixed with scintillation cocktail, and analyzed by liquid scintillation counting. All experiments were conducted in triplicate.
# The amount of ^14C-salicylate transported across the membrane was plotted as a function of time. Permeabilities were determined from the equations (8) and (9) and plotted and analyzed as in Example 1.
smiles,measurement,setting,value
"O=C([O-])c1ccccc1O.[Na+] [Salicylate, sodium salicylate]",Transference number,"[1]; AC + DC, 0.5 kΩ, PSM +",0.32 ± 0.03
same,Transference number,"[1]; AC + DC, 0.5 kΩ, PSM none",0.12 ± 0.01
same,Transference number,"[1]; AC + DC, 2 kΩ, PSM +",0.16 ± 0.03
same,Transference number,"[1]; AC + DC, 2 kΩ, PSM none",0.12 ± 0.01
same,Transference number,"[1]; DC only, PSM +",0.18 ± 0.03
same,Transference number,"[1]; DC only, PSM none",0.13 ± 0.01
same,increase in current carried by the drug due to permselective membrane,"[1]; AC permeabilization, target resistance 2 kΩ",about 30%
same,current carried by the drug,"[1]; AC permeabilization, target resistance 2 kΩ, no permselective membrane",12%
same,current carried by the drug,"[1]; AC permeabilization, target resistance 2 kΩ, permselective membrane present",16%
same,gain in current carried by the drug due to permselective material,[1]; purely DC iontophoresis,about 40%
same,current carried by the drug,"[1]; purely DC iontophoresis, permselective material present",18%
same,current carried by the drug,"[1]; purely DC iontophoresis, without permselective material",13%
same,increase in electrical transference efficiency due to permselective membrane,[1]; target resistance 0.5 kΩ,~300%
same,electrical transference efficiency,"[1]; target resistance 0.5 kΩ, with permselective membrane",32%
same,electrical transference efficiency,"[1]; target resistance 0.5 kΩ, without permselective membrane",12%
same,increase of transference number by the permselective membrane,[2],between two- and three-fold
same,Salicylate Flux,"[2]; DC 0.4 mA, PSM +",21 ± 0.3 µg/min
same,Transference number,"[2]; DC 0.4 mA, PSM +",0.675 ± 0.073
same,Salicylate Flux,"[2]; DC 0.4 mA, PSM none",13 ± 0.1 µg/min
same,Transference number,"[2]; DC 0.4 mA, PSM none",0.385 ± 0.007
same,Salicylate Flux,"[2]; DC 1.0 mA, PSM +",48 ± 1.0 µg/min
same,Transference number,"[2]; DC 1.0 mA, PSM +",0.563 ± 0.013
same,Salicylate Flux,"[2]; DC 1.0 mA, PSM none",21 ± 0.2 µg/min
same,Transference number,"[2]; DC 1.0 mA, PSM none",0.235 ± 0.007
same,Salicylate Flux,"[2]; DC 2.0 mA, PSM +",109 ± 7.0 µg/min
same,Transference number,"[2]; DC 2.0 mA, PSM +",0.650 ± 0.048
same,Salicylate Flux,"[2]; DC 2.0 mA, PSM none",36 ± 2.0 µg/min
same,Transference number,"[2]; DC 2.0 mA, PSM none",0.210 ± 0.014
same,enhancement of salicylate flux by the permselective membrane,[2]; depending on current level,two- to three-fold
same,current carried by the drug,[2]; with permselective membrane,approximately 65%
